Measured values reported in patent publication US20240217966A1, “PHARMACEUTICAL COMPOSITION CONTAINING GLP-1 RECEPTOR AGONIST HAVING FUSED RING” (Shionogi & Co., Ltd., priority 2021, published 2024).

Target: T1, Human GLP-1 receptor (Homo sapiens, UniProt P43220)
T1 construct: expressed in transfected cells
Test: Measurement of GLP-1 receptor agonist activity (cAMP assay)
Format: cell-based
Conditions: cAMP increase in GLP-1 R/CHO-K1 cells, 2 nM human GLP-1 (7-36) = 100%, DMSO only = 0%; for Emax: CHO-K1, maximum effect, read-out: Emax
Outline: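 Agonism measured as cAMP accumulation by time-resolved FRET immunoassay in CHO-K1 cells stably expressing human GLP-1 receptor. Cells treated for 1 h at 37 °C with compound and forskolin (400 μM stock), in buffer containing the PDE inhibitors IBMX (0.1 mM) and RO20-1724 (0.2 mM).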

T1 sequence (P43220 24-463): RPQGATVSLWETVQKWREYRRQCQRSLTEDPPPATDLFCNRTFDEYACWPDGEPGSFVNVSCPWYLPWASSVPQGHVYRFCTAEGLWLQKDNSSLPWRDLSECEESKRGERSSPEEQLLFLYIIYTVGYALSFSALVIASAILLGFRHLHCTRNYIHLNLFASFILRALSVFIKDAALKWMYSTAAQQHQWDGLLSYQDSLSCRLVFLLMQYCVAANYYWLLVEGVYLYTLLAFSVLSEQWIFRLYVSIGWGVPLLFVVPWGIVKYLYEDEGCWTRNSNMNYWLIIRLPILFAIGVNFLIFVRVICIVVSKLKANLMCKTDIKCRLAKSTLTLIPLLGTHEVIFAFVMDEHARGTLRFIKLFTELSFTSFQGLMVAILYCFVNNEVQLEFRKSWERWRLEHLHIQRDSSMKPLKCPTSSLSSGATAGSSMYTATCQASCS

Structure (SMILES): N#Cc1ccc(COc2nc3c(cc2C(F)(F)F)CCN(Cc2nc4ccc(C(=O)O)c(F)c4n2C[C@@H]2CCO2)C3)c(F)c1 [Compound I-300]
- Emax: 112%

Structure (SMILES): O=C(O)c1ccc2nc(CN3CCc4cc(C(F)(F)F)c(OCc5c(F)cc(Cl)cc5F)nc4C3)n(C[C@@H]3CCO3)c2c1F [Compound I-301]
- Emax: 117%

Structure (SMILES): O=C(O)c1ccc2nc(CN3CCc4cc(C(F)(F)F)c(OCc5ccc(Cl)cc5)nc4C3)n(C[C@@H]3CCO3)c2n1 [Compound I-302]
- Emax: 110%
- EC50: 1.76 nM

Structure (SMILES): COc1cc(Cl)ccc1COc1nc2c(cc1C(F)(F)F)CCN(Cc1nc3ccc(C(=O)O)nc3n1C[C@@H]1CCO1)C2 [Compound I-303]
- Emax: 119%
- EC50: 0.681 nM

Structure (SMILES): O=C(O)c1ccc2nc(CN3CCc4cc(C(F)(F)F)c(OCc5ccc(Cl)cc5Cl)nc4C3)n(C[C@@H]3CCO3)c2n1 [Compound I-304]
- Emax: 115%
- EC50: 0.869 nM

Structure (SMILES): O=C(O)c1ccc2nc(CN3CCc4cc(C(F)(F)F)c(OCc5cc(F)c(Cl)cc5F)nc4C3)n(C[C@@H]3CCO3)c2n1 [Compound I-305]
- Emax: 107%
- EC50: 0.949 nM

Structure (SMILES): O=C(O)c1ccc2nc(CN3CCc4cc(C(F)(F)F)c(OCc5ccc(Cl)cc5F)nc4C3)n(C[C@@H]3CCO3)c2n1 [Compound I-306]
- Emax: 98.7%
- EC50: 0.876 nM

Structure (SMILES): C[C@H]1c2nc(OCc3ccc(F)cc3)c(C(F)(F)F)cc2CCN1Cc1nc2c(F)cc(C(=O)O)cc2n1C[C@@H]1CCO1 [Compound I-307]
- Emax: 115%
- EC50: 0.0609 nM

Structure (SMILES): C[C@H]1c2nc(OCc3ccc(F)cc3)c(C(F)(F)F)cc2CCN1Cc1nc2ccc(C(=O)O)c(F)c2n1C[C@@H]1CCO1 [Compound I-308]
- Emax: 115%
- EC50: 0.0871 nM

Structure (SMILES): C[C@H]1c2cc(OCc3ccc(Cl)cn3)c(Cl)cc2CCN1Cc1nc2ccc(C(=O)O)cc2n1C[C@@H]1CCO1 [Compound I-309]
- Emax: 84.3%
- EC50: 2.28 nM

Structure (SMILES): COc1cc(Cl)ccc1COc1cc2c(cc1Cl)CCN(Cc1nc3ccc(C(=O)O)cc3n1C[C@@H]1CCO1)[C@H]2C [Compound I-310]
- Emax: 91%
- EC50: 0.415 nM

Structure (SMILES): C[C@H]1c2cc(OCc3ccc(Cl)cc3Cl)c(Cl)cc2CCN1Cc1nc2ccc(C(=O)O)cc2n1C[C@@H]1CCO1 [Compound I-311]
- Emax: 124%
- EC50: 0.972 nM

Structure (SMILES): C[C@H]1c2cc(OCc3c(F)cc(Cl)cc3F)c(Cl)cc2CCN1Cc1nc2ccc(C(=O)O)cc2n1C[C@@H]1CCO1 [Compound I-312]
- Emax: 102%
- EC50: 2.03 nM

Structure (SMILES): Cc1ccc(COc2cc3c(cc2Cl)CCN(Cc2nc4ccc(C(=O)O)nc4n2C[C@@H]2CCO2)[C@H]3C)cc1 [Compound I-313]
- Emax: 94%
- EC50: 7.87 nM

Structure (SMILES): COc1cc(Cl)ccc1COc1cc2c(cc1Cl)CCN(Cc1nc3ccc(C(=O)O)nc3n1C[C@@H]1CCO1)[C@H]2C [Compound I-314]
- Emax: 98.3%
- EC50: 0.537 nM

Structure (SMILES): C[C@H]1c2cc(OCc3ccc(Cl)cc3F)c(Cl)cc2CCN1Cc1nc2ccc(C(=O)O)nc2n1C[C@@H]1CCO1 [Compound I-315]
- Emax: 94.3%
- EC50: 2.1 nM

Structure (SMILES): C[C@H]1c2cc(OCc3ccc(Cl)cc3Cl)c(Cl)cc2CCN1Cc1nc2ccc(C(=O)O)nc2n1C[C@@H]1CCO1 [Compound I-316]
- Emax: 117%
- EC50: 1.66 nM

Structure (SMILES): Cc1ccc(COc2cc3c(cc2Cl)CCN(Cc2nc4ccc(C(=O)O)c(F)c4n2C[C@@H]2CCO2)[C@H]3C)cc1 [Compound I-317]
- Emax: 97.7%
- EC50: 2.56 nM

Structure (SMILES): COc1ccc(COc2cc3c(cc2Cl)CCN(Cc2nc4ccc(C(=O)O)c(F)c4n2C[C@@H]2CCO2)[C@H]3C)cc1 [Compound I-318]
- Emax: 91.3%
- EC50: 4.55 nM

Structure (SMILES): C[C@H]1c2cc(OCc3ccc(Cl)cc3)c(Cl)cc2CCN1Cc1nc2ccc(C(=O)O)c(F)c2n1C[C@@H]1CCO1 [Compound I-319]
- Emax: 95.3%
- EC50: 2.43 nM

Structure (SMILES): C[C@H]1c2cc(OCc3ccc(Cl)cn3)c(Cl)cc2CCN1Cc1nc2ccc(C(=O)O)c(F)c2n1C[C@@H]1CCO1 [Compound I-320]
- Emax: 90.3%
- EC50: 1.63 nM

Structure (SMILES): C[C@H]1c2cc(OCc3ccc(C4CC4)cc3)c(Cl)cc2CCN1Cc1nc2ccc(C(=O)O)c(F)c2n1C[C@@H]1CCO1 [Compound I-321]
- Emax: 84%
- EC50: 9.85 nM

Structure (SMILES): C[C@H]1c2cc(OCc3ccccc3Cl)c(Cl)cc2CCN1Cc1nc2ccc(C(=O)O)c(F)c2n1C[C@@H]1CCO1 [Compound I-322]
- Emax: 89%
- EC50: 3.51 nM

Structure (SMILES): C[C@H]1c2cc(OCc3ccc(F)cc3F)c(Cl)cc2CCN1Cc1nc2ccc(C(=O)O)c(F)c2n1C[C@@H]1CCO1 [Compound I-323]
- Emax: 101%
- EC50: 1.7 nM

Structure (SMILES): C[C@H]1c2cc(OCc3ccc(Cl)cc3F)c(Cl)cc2CCN1Cc1nc2ccc(C(=O)O)c(F)c2n1C[C@@H]1CCO1 [Compound I-324]
- Emax: 100%
- EC50: 0.466 nM

Structure (SMILES): C[C@H]1c2cc(OCc3ccc(Cl)cc3Cl)c(Cl)cc2CCN1Cc1nc2ccc(C(=O)O)c(F)c2n1C[C@@H]1CCO1 [Compound I-325]
- Emax: 105%
- EC50: 0.655 nM

Structure (SMILES): C[C@H]1c2cc(OCc3cc(F)c(Cl)cc3F)c(Cl)cc2CCN1Cc1nc2ccc(C(=O)O)c(F)c2n1C[C@@H]1CCO1 [Compound I-326]
- Emax: 109%
- EC50: 1.31 nM

Structure (SMILES): C[C@H]1c2cc(OCc3ccc(OC(F)F)cc3F)c(Cl)cc2CCN1Cc1nc2ccc(C(=O)O)c(F)c2n1C[C@@H]1CCO1 [Compound I-327]
- Emax: 100%
- EC50: 1.06 nM

Structure (SMILES): C[C@H]1c2cc(OCc3c(F)cc(F)cc3F)c(Cl)cc2CCN1Cc1nc2ccc(C(=O)O)c(F)c2n1C[C@@H]1CCO1 [Compound I-328]
- Emax: 87.3%
- EC50: 1.73 nM

Structure (SMILES): C[C@H]1c2cc(OCc3c(F)cc(Cl)cc3F)c(Cl)cc2CCN1Cc1nc2ccc(C(=O)O)c(F)c2n1C[C@@H]1CCO1 [Compound I-329]
- Emax: 96.7%
- EC50: 1.16 nM

Structure (SMILES): Cc1ccc(COc2cc3c(cc2Cl)CCN(Cc2nc4c(F)cc(C(=O)O)cc4n2C[C@@H]2CCO2)[C@H]3C)cc1 [Compound I-330]
- Emax: 93%
- EC50: 1.22 nM

Structure (SMILES): COc1ccc(COc2cc3c(cc2Cl)CCN(Cc2nc4c(F)cc(C(=O)O)cc4n2C[C@@H]2CCO2)[C@H]3C)cc1 [Compound I-331]
- Emax: 102%
- EC50: 2.7 nM

Structure (SMILES): C[C@H]1c2cc(OCc3ccc(Cl)cc3)c(Cl)cc2CCN1Cc1nc2c(F)cc(C(=O)O)cc2n1C[C@@H]1CCO1 [Compound I-332]
- Emax: 105%
- EC50: 1.38 nM

Structure (SMILES): C[C@H]1c2cc(OCc3ccc(C4CC4)cc3)c(Cl)cc2CCN1Cc1nc2c(F)cc(C(=O)O)cc2n1C[C@@H]1CCO1 [Compound I-333]
- Emax: 116%
- EC50: 8.05 nM

Structure (SMILES): COc1cc(Cl)ccc1COc1cc2c(cc1Cl)CCN(Cc1nc3c(F)cc(C(=O)O)cc3n1C[C@@H]1CCO1)[C@H]2C [Compound I-334]
- Emax: 114%
- EC50: 0.223 nM

Structure (SMILES): C[C@H]1c2cc(OCc3ccc(F)cc3F)c(Cl)cc2CCN1Cc1nc2c(F)cc(C(=O)O)cc2n1C[C@@H]1CCO1 [Compound I-335]
- Emax: 98%
- EC50: 1.23 nM

Structure (SMILES): C[C@H]1c2cc(OCc3ccc(Cl)cc3F)c(Cl)cc2CCN1Cc1nc2c(F)cc(C(=O)O)cc2n1C[C@@H]1CCO1 [Compound I-336]
- Emax: 100%
- EC50: 0.696 nM

Structure (SMILES): C[C@H]1c2cc(OCc3ccc(Cl)cc3Cl)c(Cl)cc2CCN1Cc1nc2c(F)cc(C(=O)O)cc2n1C[C@@H]1CCO1 [Compound I-337]
- Emax: 104%
- EC50: 0.325 nM

Structure (SMILES): C[C@H]1c2cc(OCc3cc(F)c(Cl)cc3F)c(Cl)cc2CCN1Cc1nc2c(F)cc(C(=O)O)cc2n1C[C@@H]1CCO1 [Compound I-338]
- Emax: 100%
- EC50: 1.27 nM

Structure (SMILES): C[C@H]1c2cc(OCc3c(F)cc(Cl)cc3F)c(Cl)cc2CCN1Cc1nc2c(F)cc(C(=O)O)cc2n1C[C@@H]1CCO1 [Compound I-339]
- Emax: 105%
- EC50: 0.377 nM

Structure (SMILES): COc1cc(C(=O)O)cc2c1nc(CN1CCc3cc(Cl)c(OCc4ccc(C)cc4)cc3[C@@H]1C)n2C[C@@H]1CCO1 [Compound I-340]
- Emax: 105%
- EC50: 0.31 nM

Structure (SMILES): COc1cc(C(=O)O)cc2c1nc(CN1CCc3cc(Cl)c(OCc4ccc(Cl)cc4)cc3[C@@H]1C)n2C[C@@H]1CCO1 [Compound I-341]
- Emax: 125%
- EC50: 0.236 nM

Structure (SMILES): COc1cc(C(=O)O)cc2c1nc(CN1CCc3cc(Cl)c(OCc4ccc(C5CC5)cc4)cc3[C@@H]1C)n2C[C@@H]1CCO1 [Compound I-342]
- Emax: 97.3%
- EC50: 1.95 nM

Structure (SMILES): COc1cc(Cl)ccc1COc1cc2c(cc1Cl)CCN(Cc1nc3c(OC)cc(C(=O)O)cc3n1C[C@@H]1CCO1)[C@H]2C [Compound I-343]
- Emax: 111%
- EC50: 0.063 nM

Structure (SMILES): COc1cc(C(=O)O)cc2c1nc(CN1CCc3cc(Cl)c(OCc4ccc(Cl)cc4F)cc3[C@@H]1C)n2C[C@@H]1CCO1 [Compound I-344]
- Emax: 110%
- EC50: 0.0824 nM

Structure (SMILES): COc1cc(C(=O)O)cc2c1nc(CN1CCc3cc(Cl)c(OCc4ccc(Cl)cc4Cl)cc3[C@@H]1C)n2C[C@@H]1CCO1 [Compound I-345]
- Emax: 129%
- EC50: 0.096 nM

Structure (SMILES): COc1cc(C(=O)O)cc2c1nc(CN1CCc3cc(Cl)c(OCc4cc(F)c(Cl)cc4F)cc3[C@@H]1C)n2C[C@@H]1CCO1 [Compound I-346]
- Emax: 117%
- EC50: 0.354 nM

Structure (SMILES): Cc1ccc(COc2nc3c(cc2C(F)(F)F)CCN(Cc2nc4ccc(C(=O)O)nc4n2C[C@@H]2CCO2)[C@H]3C)cc1 [Compound I-347]
- Emax: 110%
- EC50: 0.241 nM

Structure (SMILES): C[C@H]1c2nc(OCc3ccc(Cl)cc3)c(C(F)(F)F)cc2CCN1Cc1nc2ccc(C(=O)O)nc2n1C[C@@H]1CCO1 [Compound I-348]
- Emax: 129%
- EC50: 0.206 nM

Structure (SMILES): C[C@H]1c2nc(OCc3ccc(C4CC4)cc3)c(C(F)(F)F)cc2CCN1Cc1nc2ccc(C(=O)O)nc2n1C[C@@H]1CCO1 [Compound I-349]
- Emax: 117%
- EC50: 1.27 nM

Structure (SMILES): COc1cc(Cl)ccc1COc1nc2c(cc1C(F)(F)F)CCN(Cc1nc3ccc(C(=O)O)nc3n1C[C@@H]1CCO1)[C@H]2C [Compound I-350]
- Emax: 113%
- EC50: 0.0964 nM
